The target of data set [1] is T1, human recombinant muscarinic receptor M-4 (Homo sapiens, UniProt P08173).
T1 sequence (P08173 1-479): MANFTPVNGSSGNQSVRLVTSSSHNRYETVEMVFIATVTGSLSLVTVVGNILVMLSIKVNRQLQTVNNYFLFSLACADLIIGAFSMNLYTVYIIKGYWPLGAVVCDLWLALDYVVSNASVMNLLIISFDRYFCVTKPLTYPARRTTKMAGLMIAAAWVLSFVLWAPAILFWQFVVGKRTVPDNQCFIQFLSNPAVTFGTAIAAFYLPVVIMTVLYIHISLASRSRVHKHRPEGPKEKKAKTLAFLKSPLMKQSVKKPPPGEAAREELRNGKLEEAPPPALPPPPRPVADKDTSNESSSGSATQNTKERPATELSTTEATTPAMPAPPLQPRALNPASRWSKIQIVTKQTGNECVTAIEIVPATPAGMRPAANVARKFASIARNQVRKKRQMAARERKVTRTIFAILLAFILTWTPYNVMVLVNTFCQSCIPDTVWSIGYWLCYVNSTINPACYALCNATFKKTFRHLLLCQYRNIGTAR
Kind of data set: Ligand binding, affinity for muscarinic receptors (M-4). As to conditions: membranes from SF9 cells, radioligand 3H scopolamine methylchloride; read-out: Affinity (negative logarithm of the dissociation constant Ki), M-4 (converted).
Experimental: The experiments were carried out on membranes prepared from SF9 cells that expressed human recombinant muscarinic receptor subtypes. After incubation with the test article and the proper radioligand (^3H scopolamine methylchloride) and washing, bound radioactivity was determined with a liquid scintillation counter, using a commercial scintillation cocktail. The specific radioligand binding to a muscarinic receptor was defined as the difference between total binding and nonspecific binding determined in the presence of an excess of unlabelled atropine.

In data set [2] the test system is carbachol-induced contractions of urinary bladder strips. Kind of data set: Antimuscarinic activity on bladder smooth muscle strips (carbachol-induced contractions). It is filed as cell-based, guinea pig. To be noted: Cavia porcellus, read-out: KB, inhibition of carbachol-induced contractions. The protocol:
• Experiments have now been performed using methods described by Kachur et al, 1988, J Pharmacol Exp Ther 247: 867-872) and Noronha-Blob et al. J Pharmacol Exp Ther 256: 562-567). Strips of tissue (approximately 10 mm long and 1.5 mm wide) were removed from the urinary bladder of male guinea pigs. The tissues were suspended in an oxygenated buffer of the following composition, in mM: NaCl 133; KCl 4.7; CaCl2 2.5; MgSO4 0.6; […] The smooth muscle strips were maintained at or about 37.5° C. in tissue chambers and allowed to equilibrate with the bathing solution for one hour before proceeding with the experiment. […] R., Wright S. E., Aberg […]. 1998, 48: 1012-1018).

The next data set relates to learning behavior. Kind of data set: Cognitive side effects, Test Protocol 1: T-shaped maze learning. The data set is classed as in vivo, rat. As to conditions: for Effect on learning behavior (time to choose the correct arm of the T-maze): conscious rats, naive animals. The protocol: Conscious rats are used. The animals are placed at the base of a T-shaped maze with a reward placed in one of the arms of the maze. The effect of the test article on learning is determined by investigating the time it takes in the maze before the rats choose the correct arm of the maze. Experiments were also performed in rats that had been pretreated with phenylephrine to increase the permeability of the blood-brain barrier. Control groups of animals were treated with placebo (vehicle only) or with oxybutynin.

For data set [3], the system named is behavioral, neurological, autonomic and toxicity changes. Kind of data set: Cognitive side effects, Test Protocol 2: modified Irwin test. It is filed as in vivo, mouse. As to conditions: oral dosing. The protocol:
Modified Irwin tests were performed. This is a routine neuro-pharmacological test method. Conscious mice were used. The procedure involved an initial phase of undisturbed observation and a later manipulative phase. An animal's assessment started by observing its undisturbed behavior in housing (body position, locomotor activity, etc.). Thereafter the animal was transferred by tail on the working table for the manipulative phase (spatial locomotion, gait, aggressiveness, etc.). The occurrence of any unexpected state was noted. The responses to test substances were assessed at 60 min, 120 min and 24 hrs after dosing. Animals were dose orally with trospium chloride, some groups of animals had been pretreated with phenylephrine to increase the permeability of the blood-brain barrier. Criteria included behavioral, neurological, autonomic and toxicity changes in comparison with vehicle-treated groups. The results were expressed for each group as the number of animals displaying behavioral changes versus the corresponding control group at each observation time. No statistical analysis was carried out since the lack of statistically significant differences were obvious to the investigator.

Where [4] appears, read: male guinea pig urinary bladder strips.

Like-named read-outs stand apart in the source and are kept apart here.

Broadly, the Ki is the equilibrium dissociation constant of an inhibitor or competing ligand from its target.

As for `NC(=O)C(c1ccccc1)(c1ccccc1)[C@@H]1CCN(CCc2ccc3c(c2)CCO3)C1` [Darifenacin], the Ki in data set [1] is 39.8 nM.

As for `Cc1ccc(O)c([C@H](CCN(C(C)C)C(C)C)c2ccccc2)c1` [Tolterodine], the Kb in data set [2] lay in the range of 1.5 to 5.5 nM. The Ki in data set [1] is 12.6 nM.

As to `O=C(O[C@H]1C[C@H]2CC[C@@H](C1)[N+]21CCCC1)C(O)(c1ccccc1)c1ccccc1` [Trospium, endo-3-[(hydroxydiphenyl-acetyl)oxy]spiro[8-azoniabicyclo[3.2.1]octane-8,1′-pyrrolidinium]chloride], the Kb in data set [2] lay within 1.5 to 5.5 nM. The “Effect on learning behavior (time to choose the correct arm of the T-maze)” value in the data set on learning behavior (ongoing studies) is listed as “does not influence the learning behavior”. In addition, in the data set on learning behavior (rats in which a learning disorder has been induced with oxybutynin, ongoing studies), the “Further impairment of learning behavior” value is “no further impairment of learning behavior”. Moreover, the “Impairment of learning behavior after phenylephrine pretreatment” value in the data set with learning behavior (rats pretreated with phenylephrine to increase blood-brain barrier permeability) was “did not uncover any impairment of learning behavior”. Besides, in data set [3] (conscious mice, assessed at 60 min, 120 min and 24 hrs), the “Behavioral changes in modified Irwin test versus control group” value was “did not influence the test results”. Further, in data set [3] (mice pretreated with phenylephrine to increase BBB permeation), the “Behavioral changes in modified Irwin test after phenylephrine pretreatment” value is given as “no significant effects”.

In the case of `CCN(CC)CC#CCOC(=O)C(O)(c1ccccc1)C1CCCCC1` (stereo not drawn) [Oxybutynin], in data set [2] (setting [4]), the Kb was 1.5 to 5.5 nM. Further, the “Effect on learning behavior (time to choose the correct arm of the T-maze)” value in the data set on learning behavior (ongoing studies) is “learning is delayed”.

Turning to `CC(CC(c1ccccc1)c1ccccc1)NC(C)(C)C` (stereo not drawn) [terodiline], in data set [2] (setting [4]), the Kb lay in the range of 1.5 to 5.5 nM.

Source of the values: patent US20060287347A1, “Methods for treating smooth muscle disorders using trospium” (priority 2005, published 2006).
